System: Plasmodium berghei
Test: Luciferase/luciferin-expressing antifolate-resistant parasites were used to infect a culture of HepG2 cells that were pre-incubated with compounds. Infected hepatocytes emit light due to the luciferase reaction. Assay results are presented as the percent inhibition of light emission compared to control. […]
Type: functional
Details: sporozoite; for IC90: read-out: LUCIFERASE INFECTION ASSAY - IC90

Cc1onc(-c2ccc(Cl)cc2Cl)c1-c1csc(Nc2ccc(Cl)cc2)n1
IC50 (FFLUC_HILL_SLOPE 2.37, FFLUC_R_SQUARED 0.46, PBLUC_HILL_SLOPE 2.86, PBLUC_R_SQUARED 0.233, read-out: LUCIFERASE INFECTION ASSAY - IC50): 6.39 µM | IC90: > 7.56 µM

O=C1CCCC2=Nc3ccc4ccccc4c3C(c3ccc(F)cc3F)C12 (stereo not drawn)
IC50 (FFLUC_HILL_SLOPE 2.36, FFLUC_R_SQUARED 0.309, read-out: LUCIFERASE INFECTION ASSAY - IC50): > 10 µM | IC90: > 10 µM

O=C(Nc1ccc(Cl)cc1)Nc1nc(-c2cc(Cl)sc2Cl)cs1
IC50 (FFLUC_HILL_SLOPE 2.44, FFLUC_R_SQUARED 0.604, PBLUC_HILL_SLOPE 2.52, PBLUC_R_SQUARED 0.549, read-out: LUCIFERASE INFECTION ASSAY - IC50): 3.26 µM | IC90: 7.79 µM

O=C1C(=O)N(Cc2ccc(Cl)cc2)c2c1cccc2C(F)(F)F
IC50 (FFLUC_HILL_SLOPE 2.39, FFLUC_R_SQUARED 0.89, HEPG2TOX_HILL_SLOPE 3.88, HEPG2TOX_R_SQUARED 0.975, PBLUC_HILL_SLOPE 2.88, PBLUC_R_SQUARED 0.708, read-out: LUCIFERASE INFECTION ASSAY - IC50): 1.58 µM | IC90: 3.39 µM

Cc1ccc(C2(c3ccccc3)NC(=O)N(CC(=O)c3ccc(Br)s3)C2=O)cc1C (stereo not drawn)
IC50 (FFLUC_HILL_SLOPE 2.42, FFLUC_R_SQUARED 0.19, PBLUC_HILL_SLOPE 12.8, PBLUC_R_SQUARED 0.482, read-out: LUCIFERASE INFECTION ASSAY - IC50): 3.29 µM | IC90: 3.91 µM

COC(=O)c1ccc(/C=C2\Oc3cc(O)cc(C)c3C2=O)cc1
IC50 (FFLUC_HILL_SLOPE 2.39, FFLUC_R_SQUARED 0.815, read-out: LUCIFERASE INFECTION ASSAY - IC50): > 10.6 µM | IC90: > 10.6 µM

O=C(Nc1nc2c(s1)CCC2)c1cnn(-c2ccccc2)c1C1CC1
IC50 (FFLUC_HILL_SLOPE 2.39, FFLUC_R_SQUARED 0.896, PBLUC_HILL_SLOPE 0.607, PBLUC_R_SQUARED 0.989, read-out: LUCIFERASE INFECTION ASSAY - IC50): 0.0108 µM | IC90: 0.405 µM

Cc1ccc(-c2nn(-c3ccccc3)cc2/C=C(/C(=O)c2ccccc2)c2nc3ccccc3s2)o1
IC50 (FFLUC_HILL_SLOPE 2.3, FFLUC_R_SQUARED 0.652, PBLUC_HILL_SLOPE 2.05, PBLUC_R_SQUARED 0.091, read-out: LUCIFERASE INFECTION ASSAY - IC50): > 10 µM | IC90: > 10 µM

C=CCn1c(SC(C(=O)c2c[nH]c3ccccc23)c2ccccc2)nc2sc(C)c(C)c2c1=O (stereo not drawn)
IC50 (FFLUC_HILL_SLOPE 2.34, FFLUC_R_SQUARED 0.404, HEPG2TOX_HILL_SLOPE 0.632, HEPG2TOX_R_SQUARED 0.765, PBLUC_HILL_SLOPE 19.2, PBLUC_R_SQUARED 0.592, read-out: LUCIFERASE INFECTION ASSAY - IC50): 3.33 µM | IC90: 3.74 µM

COc1ccccc1NC1=C(Cl)C(=O)c2ccccc2C1=O
IC50 (FFLUC_HILL_SLOPE 2.43, FFLUC_R_SQUARED 0.19, HEPG2TOX_HILL_SLOPE 11.1, HEPG2TOX_R_SQUARED 0.994, PBLUC_HILL_SLOPE 1.56, PBLUC_R_SQUARED 0.76, read-out: LUCIFERASE INFECTION ASSAY - IC50): 2 µM | IC90: 8.17 µM

Cc1cc(C(=O)ONC(=N)c2ccccc2)nn1C(C)(C)C
IC50 (FFLUC_HILL_SLOPE 2.36, FFLUC_R_SQUARED 0.364, PBLUC_HILL_SLOPE 1.16, PBLUC_R_SQUARED 0.78, read-out: LUCIFERASE INFECTION ASSAY - IC50): 0.186 µM | IC90: 1.23 µM

S=C(NCC1CCCO1)c1c(-c2ccccc2)c2c3n(c(COc4ccccc4)nn13)CCCC2 (stereo not drawn)
IC50 (FFLUC_HILL_SLOPE 2.32, FFLUC_R_SQUARED 0.306, HEPG2TOX_HILL_SLOPE 7.94, HEPG2TOX_R_SQUARED 0.0665, PBLUC_HILL_SLOPE 11.7, PBLUC_R_SQUARED 0.258, read-out: LUCIFERASE INFECTION ASSAY - IC50): 7.8 µM | IC90: 9.41 µM

NC(=O)c1ccsc1NC(=O)Cc1coc2ccc3ccccc3c12
IC50 (FFLUC_HILL_SLOPE 2.43, FFLUC_R_SQUARED 0.812, HEPG2TOX_HILL_SLOPE 2.74, HEPG2TOX_R_SQUARED 0.883, PBLUC_HILL_SLOPE 2.33, PBLUC_R_SQUARED 0.39, read-out: LUCIFERASE INFECTION ASSAY - IC50): 5.74 µM | IC90: > 10 µM

CC(C)n1ncc2c(C(=O)Nc3nnc(C(F)(F)F)s3)cc(-c3ccc4c(c3)OCCO4)nc21
IC50 (FFLUC_HILL_SLOPE 2.46, FFLUC_R_SQUARED 0.0818, HEPG2TOX_HILL_SLOPE 10.3, HEPG2TOX_R_SQUARED 0.775, PBLUC_HILL_SLOPE 73.3, PBLUC_R_SQUARED 0.159, read-out: LUCIFERASE INFECTION ASSAY - IC50): 5.42 µM | IC90: 5.59 µM

c1ccc2cc(C3=NNC(=NC4CC4)SC3)ccc2c1
IC50 (FFLUC_HILL_SLOPE 2.37, FFLUC_R_SQUARED 0.781, HEPG2TOX_HILL_SLOPE 1.63, HEPG2TOX_R_SQUARED 0.913, PBLUC_HILL_SLOPE 5.38, PBLUC_R_SQUARED 0.229, read-out: LUCIFERASE INFECTION ASSAY - IC50): 0.0129 µM | IC90: 0.0194 µM

O=C(CSc1nnc(-c2ccc(Cl)cc2Cl)n1-c1ccc(F)c(Cl)c1)NCCC1=CCCCC1
IC50 (FFLUC_HILL_SLOPE 2.41, FFLUC_R_SQUARED 0.138, HEPG2TOX_HILL_SLOPE 7.97, HEPG2TOX_R_SQUARED 0.0659, PBLUC_HILL_SLOPE 2.87, PBLUC_R_SQUARED 0.0345, read-out: LUCIFERASE INFECTION ASSAY - IC50): 8.61 µM | IC90: > 10 µM

CC(=O)C1=NN(c2ccccc2)C(c2ccccc2OCc2ccccc2)N1c1ccc(N2CCOCC2)cc1 (stereo not drawn)
IC50 (FFLUC_HILL_SLOPE 2.34, FFLUC_R_SQUARED 0.456, PBLUC_HILL_SLOPE 2.53, PBLUC_R_SQUARED 0.447, read-out: LUCIFERASE INFECTION ASSAY - IC50): 9.41 µM | IC90: > 10 µM

O=C(COC(=O)c1ccc2ccccc2c1)c1cc2c3c(c1)CC(=O)N3CCC2
IC50 (FFLUC_HILL_SLOPE 2.44, FFLUC_R_SQUARED 0.438, read-out: LUCIFERASE INFECTION ASSAY - IC50): > 10 µM | IC90: > 10 µM

Fc1ccc(CSc2nc(CSc3ccc(Cl)cc3)cc(Sc3ccc(Cl)cc3)n2)cc1
IC50 (FFLUC_HILL_SLOPE 2.29, FFLUC_R_SQUARED 0.432, read-out: LUCIFERASE INFECTION ASSAY - IC50): > 6.35 µM | IC90: > 6.35 µM

CCCN(CCC)c1ccc(C(C2C(=O)CC(C)(C)CC2=O)C2C(=O)CC(C)(C)CC2=O)cc1
IC50 (FFLUC_HILL_SLOPE 2.34, FFLUC_R_SQUARED 0.0441, PBLUC_HILL_SLOPE 3.18, PBLUC_R_SQUARED 0.551, read-out: LUCIFERASE INFECTION ASSAY - IC50): 5.61 µM | IC90: > 10 µM

CC(C)(CSc1ccc(F)cc1)NS(=O)(=O)c1ccc(Cl)cc1
IC50 (FFLUC_HILL_SLOPE 2.37, FFLUC_R_SQUARED 0.607, HEPG2TOX_HILL_SLOPE 7.41, HEPG2TOX_R_SQUARED 0.381, PBLUC_HILL_SLOPE 2.26, 0.933, PBLUC_R_SQUARED 0.368, 0.781, read-out: LUCIFERASE INFECTION ASSAY - IC50): 4.38 µM | IC90: > 10 µM

Cc1ccc(N2C(=O)/C(=C/c3ccc(C(C)C)cc3)N=C2SCc2cccc(S(=O)(=O)N(C)C)c2)cc1
IC50 (FFLUC_HILL_SLOPE 2.29, FFLUC_R_SQUARED 0.777, PBLUC_HILL_SLOPE 2.35, PBLUC_R_SQUARED 0.372, read-out: LUCIFERASE INFECTION ASSAY - IC50): 6.97 µM | IC90: > 10 µM

O=S(=O)(c1ccc(CNc2ncnc3scc(-c4ccc(F)cc4)c23)s1)N1CCCC1
IC50 (FFLUC_HILL_SLOPE 2.33, FFLUC_R_SQUARED 0.668, PBLUC_HILL_SLOPE 11.9, PBLUC_R_SQUARED 0.757, read-out: LUCIFERASE INFECTION ASSAY - IC50): 8.74 µM | IC90: > 10 µM

O=C(N/N=C/c1c(-c2ccccc2)n(-c2ccccc2)c2ccccc12)C1COc2ccccc2O1 (stereo not drawn)
IC50 (FFLUC_HILL_SLOPE 2.45, FFLUC_R_SQUARED 0.636, PBLUC_HILL_SLOPE 2.61, PBLUC_R_SQUARED 0.591, read-out: LUCIFERASE INFECTION ASSAY - IC50): 5.83 µM | IC90: > 10 µM

N#Cc1c(SCc2ccc(Cl)cc2)nc2c(c1-c1cccs1)CCCC2
IC50 (FFLUC_HILL_SLOPE 2.42, FFLUC_R_SQUARED 0.441, PBLUC_HILL_SLOPE 1.78, PBLUC_R_SQUARED 0.144, read-out: LUCIFERASE INFECTION ASSAY - IC50): 7.61 µM | IC90: > 8.31 µM

Cc1ccc(-n2c(SCc3c(-c4ccccc4)nc4sccn34)nnc2-c2ccccc2)cc1C
IC50 (FFLUC_HILL_SLOPE 2.28, FFLUC_R_SQUARED 0.669, PBLUC_HILL_SLOPE 14.9, PBLUC_R_SQUARED 0.408, read-out: LUCIFERASE INFECTION ASSAY - IC50): 3.31 µM | IC90: 3.83 µM

COc1ccc(CCn2cnc3c(cnn3-c3ccc(C)cc3)c2=O)cc1
IC50 (FFLUC_HILL_SLOPE 2.44, FFLUC_R_SQUARED 0.232, HEPG2TOX_HILL_SLOPE 1.29, HEPG2TOX_R_SQUARED 0.958, PBLUC_HILL_SLOPE 8.61, PBLUC_R_SQUARED 0.878, read-out: LUCIFERASE INFECTION ASSAY - IC50): 0.103 µM | IC90: 0.133 µM

COc1ccc(C(c2cc(Cl)c3cccnc3c2O)N2CCN(C)CC2)cc1 (stereo not drawn)
IC50 (FFLUC_HILL_SLOPE 2.4, FFLUC_R_SQUARED 0.862, HEPG2TOX_HILL_SLOPE 1.1, HEPG2TOX_R_SQUARED 0.743, PBLUC_HILL_SLOPE 15.9, PBLUC_R_SQUARED 0.801, read-out: LUCIFERASE INFECTION ASSAY - IC50): 2.95 µM | IC90: 3.38 µM

CCOC(=O)c1c(S(=O)(=O)Nc2ccc(C(C)(C)C)cc2)c(-c2ccccc2)n(-c2ccccc2)c1C
IC50 (FFLUC_HILL_SLOPE 2.33, FFLUC_R_SQUARED 0.844, HEPG2TOX_HILL_SLOPE 0.337, HEPG2TOX_R_SQUARED 0.667, PBLUC_HILL_SLOPE 4.65, PBLUC_R_SQUARED 0.51, read-out: LUCIFERASE INFECTION ASSAY - IC50): 3.23 µM | IC90: 5.19 µM

From ChEMBL document CHEMBL4483862, “Open-source discovery of chemical leads for next-generation chemoprotective antimalarials” (2018)
